Assay [1] concerns the target T1, COX-2 (Homo sapiens, UniProt P35354).
T1 construct: expressed in transfected cells; host or cells: CHO cells stably transfected with pCDNAIII (CHO[hCOX-2])
T1 sequence (P35354 18-604): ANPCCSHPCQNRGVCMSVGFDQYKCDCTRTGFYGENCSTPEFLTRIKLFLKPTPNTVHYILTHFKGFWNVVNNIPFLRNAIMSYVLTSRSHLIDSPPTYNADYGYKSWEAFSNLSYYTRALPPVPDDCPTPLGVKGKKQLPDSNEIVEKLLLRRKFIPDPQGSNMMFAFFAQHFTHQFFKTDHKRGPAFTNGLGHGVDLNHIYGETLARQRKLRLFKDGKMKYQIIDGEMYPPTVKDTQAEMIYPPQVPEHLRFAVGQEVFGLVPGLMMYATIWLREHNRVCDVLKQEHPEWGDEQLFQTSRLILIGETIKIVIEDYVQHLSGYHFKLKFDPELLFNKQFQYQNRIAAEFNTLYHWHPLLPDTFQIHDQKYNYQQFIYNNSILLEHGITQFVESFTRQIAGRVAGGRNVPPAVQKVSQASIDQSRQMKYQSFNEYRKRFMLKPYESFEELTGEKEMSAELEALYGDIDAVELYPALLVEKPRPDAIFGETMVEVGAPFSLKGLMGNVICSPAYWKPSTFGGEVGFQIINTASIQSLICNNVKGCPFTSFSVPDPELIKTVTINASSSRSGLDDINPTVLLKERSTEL
Kind of assay: Whole cell assay for COX-2 using CHO transfected cell lines (inhibition of PGE2 production). The assay is classed as cell-based. The procedure:
Chinese hamster ovary (CHO) cell lines which have been stably transfected with an eukaryotic expression vector pCDNAIII containing either the human COX-1 or COX-2 cDNA's are used for the assay. These cell lines are referred to as CHO [hCOX-1] and CHO [hCOX-2], respectively. For cyclooxygenase assays, CHO[hCOX-1] cells from suspension cultures and CHO[hCOX-2] cells prepared by trypsinization of adherent cultures are harvested by centrifugation (300 x g, 10 min) and washed once in HBSS containing 15 mM HEPES, pH 7.4, and resuspended in HBSS, 15 mM HEPES, pH 7.4, at a cell concentration of 1.5 x 10^6 cells/ml. […] Cells are then challenged in the presence or absence of drug with the AA/HBSS solution to yield a final concentration of 0.5 µM AA in the CHO[hCOX-1] assay and a final concentration of 10 µM AA in the CHO[hCOX-2] assay. […] Cyclooxygenase activity in the absence of test compounds is determined as the difference in PGE2 levels of cells challenged with arachidonic acid versus the PGE2 levels in cells mock-challenged with ethanol vehicle. Inhibition of PGE2 synthesis by test compounds is calculated as a percentage of the activity in the presence of drug versus the activity in the positive control samples.
In the assay, inhibition is determined by measuring the amount of prostaglandin E2 (PGE2) synthesized in the presence of arachidonic acid, COX-1 or COX-2 and a putative inhibitor. […]

Assay [2] has as its target T2, COX-1 (Homo sapiens, UniProt P23219).
T2 construct: human U-937 cells (which specifically express COX-1); endogenous in cells; host or cells: human U-937 cells
Kind of assay: Whole cell cyclooxygenase assay in U-937 cells (COX-1, inhibition of PGE2 production). The assay is classed as cell-based. The procedure: Compounds are tested as inhibitors of cyclooxygenase activity in whole cell cyclooxygenase assays. Both of these assays measure prostaglandin E2 synthesis in response to arachidonic acid, using a radioimmunoassay. Cells used for these assays are human osteosarcoma 143 cells (which specifically express COX-2) and human U-937 cells (which specifically express COX-1). In these assays, 100% activity is defined as the difference between prostaglandin E2 synthesis in the absence and presence of arachidonate.
For cyclooxygenase assays, osteosarcoma cells are cultured in 1 mL of media in 24-well multidishes (Nunclon) until confluent (1-2 x 10^5 cells/well). U-937 cells are grown in spinner flasks and resuspended to a final density of 1.5 x 10^6 cells/mL in 24-well multidishes (Nunclon). Following washing and resuspension of osteosarcoma and U-937 cells in 1 mL of HBSS, 1 µL of a DMSO solution of test compound or DMSO vehicle is added, and samples gently mixed. All assays are performed in triplicate. Samples are then incubated for 5 or 15 minutes at 37C, prior to the addition of arachidonic acid. Arachidonic acid (peroxide-free, Cayman Chemical) is prepared as a 10 mM stock solution in ethanol and further diluted 10-fold in HBSS. An aliquot of 10 µL of this diluted solution is added to the cells to give a final arachidonic acid concentration of 10 µM. Control samples are incubated with ethanol vehicle instead of arachidonic acid. Samples are again gently mixed and incubated for a further 10 min. at 37C. For osteosarcoma cells, reactions are then stopped by the addition of 100 µL of 1N HCl, with mixing and by the rapid removal of the solution from cell monolayers. For U-937 cells, reactions are stopped by the addition of 100 µL of IN HCl, with mixing. Samples are then neutralized by the addition of 100 µL of 1N NaOH and PGE2 levels measured by radioimmunoassay.
In the assay, inhibition is determined by measuring the amount of prostaglandin E2 (PGE2) synthesized in the presence of arachidonic acid, COX-1 or COX-2 and a putative inhibitor.
The results for inhibition of PGE2 production may be seen in Table 7.

T2 sequence (P23219 24-599): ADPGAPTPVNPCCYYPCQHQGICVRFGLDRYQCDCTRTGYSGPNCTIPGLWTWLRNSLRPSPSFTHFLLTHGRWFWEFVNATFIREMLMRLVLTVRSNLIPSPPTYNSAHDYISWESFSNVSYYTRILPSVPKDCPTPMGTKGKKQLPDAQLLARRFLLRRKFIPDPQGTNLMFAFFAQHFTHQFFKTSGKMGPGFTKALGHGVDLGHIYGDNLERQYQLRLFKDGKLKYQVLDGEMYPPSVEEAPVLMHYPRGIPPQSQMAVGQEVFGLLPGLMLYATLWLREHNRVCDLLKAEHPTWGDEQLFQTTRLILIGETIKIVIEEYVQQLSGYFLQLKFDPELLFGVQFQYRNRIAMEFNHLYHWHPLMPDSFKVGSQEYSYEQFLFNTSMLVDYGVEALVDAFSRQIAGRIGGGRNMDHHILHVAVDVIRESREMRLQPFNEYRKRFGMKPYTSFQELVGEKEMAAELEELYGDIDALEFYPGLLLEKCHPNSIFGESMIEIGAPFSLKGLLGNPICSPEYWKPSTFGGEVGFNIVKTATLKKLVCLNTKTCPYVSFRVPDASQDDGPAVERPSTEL

One may read the IC50 as the point on the concentration scale where inhibition reaches its midpoint. A lower IC50 goes with greater potency in that assay. Take `CC1(c2ccsc2)C(=O)C(c2ccccc2)=C1c1ccc(S(C)(=O)=O)cc1` (stereo not drawn) [Example 6, 4-Methyl-3-(4-methylsulfonylphenyl)-2-phenyl-4-(3-thienyl)-2-cyclobuten-1-one]: the IC50 in assay [1] is 0.025 µM; in assay [2], 2 µM.
For `CC1(C)C(=O)C(c2ccc(S(C)(=O)=O)cc2)=C1c1ccccc1` [Example 30, 4,4-dimethyl-2-(4-methylsulfonylphenyl)-3-phenyl-2-cyclobuten-1-one], the IC50 in assay [2] worked out at 1.1 µM.
For the compound `C=C1CC(c2ccc(S(C)(=O)=O)cc2)=C1c1ccccc1` [Example 39, 3-Methylene-1-(4-methylsulfonylphenyl)-2-phenyl-1-cyclobutene], the IC50 in assay [2] came out at 1 µM.
As to `C/C(CO)=C1\CC(c2ccc(S(C)(=O)=O)cc2)=C1c1ccccc1` [Example 42], the results for the IC50 in assay [1] and in assay [2] were 0.022 µM and 1.5 µM, respectively.

For the origin of these results see patent EP0889878B1 (Merck Frosst Canada & Co., priority 1996, dated 1997).
